Here are results for two compounds from the NIST ThermoML archive (doi:10.1016/j.tca.2008.09.005).

Structures are written as SMILES. ± gives the expanded uncertainty stated by the source.

For data set [1] the following is noted: 298.15 K, 101.33 kPa, Liquid.
Data set [2] can be described thus: refractive index (Na D-line) (dimensionless). The conditions noted are these: 298.15 K; 101.33 kPa; Liquid; Standard Abbe refractometry.

Consider `CN1CCN(C)C1=O` [1,3-dimethyl-2-imidazolidinone], for which the mass density in data set [1] (Vibrating tube method) came out at 1052.23 ± 1.2 kg/m3. Also, the refractive index in data set [2] was 1.4713 ± 0.0008.

Consider `O` [water], for which the electrical conductivity in data set [1] is 1.3e-05 ± 1e-06 S/m.

As a reminder, the mass density is mass per unit of volume. By refractive index is commonly meant a measure of how strongly the sample bends light.
